# Laboratory results from patent publication US5792799A, “Parenteral delivery of MAO A inhibitors” (Athena Neurosciences, Inc., priority 1996, dated 1998).
# Values joined by “and” are separate entries in the source; they are usually repeats but may differ in a detail not shown here. Identical values can stand only once.
# What was measured:
# [1] = test system: MAO A; assay: MAO A activity in mouse striatum, liver and gut after subcutaneous clorgyline (Example 1); type: in vivo, C57BL/6 mice
# Procedure: All experiments were performed in strict accordance with the National Institutes of Health (NIH) Guide for the Care and Use of Laboratory Animals. C57BL/6 mice were housed under constant temperature (22° C.) and humidity conditions in a room illuminated for 12 hours per day, with food and water freely available. […] Animals were sacrificed five hours after drug administration. Brains were removed, and dissection of the striata was performed within two minutes of cervical dislocation. Tissues were collected in buffer (pH 7.2), sonicated for approximately 10 seconds, and stored at -70° C. Similar procedures were used to collect, homogenize and store samples from the liver and gut of the animals.
# (§1) MAO A and MAO B activity were measured as previously described (Yu and Hertz, J. Neurochem. 39:1492-5 (1982)), using 14C-phenylethylamine and 14C-5-hydroxytryptamine as selective substrates for MAO B and MAO A, respectively. Preliminary experiments were performed to ensure that enzyme activity was linear with respect to time and enzyme concentration, and that no more than 10-20% of the substrate was consumed during the incubation period (data not shown). Protein was measured by the method of Lowry et al. (J. Biol. Chem. 193:265-75 (1951)).
# [2] = test system: MAO A; assay: Effect of repeated s.c. or oral administration of clorgyline on MAO A activity in striatum, intestine and liver (Example 3); type: in vivo, mice; conditions: for MAO A inhibition in the liver: single or multiple
# Procedure: as §1
# MAO A activity was measured and compared in the striatum, intestine and liver.
# [3] = test system: MAO A; assay: Comparison of parenteral (s.c.) and oral clorgyline on MAO A activity in striatum, gut and liver (Example 2); type: in vivo, mice; conditions: for MAO activity in the striatum, % of control values: mouse striatum; for extent of inhibition of intestinal MAO A activity: mouse intestine
# Procedure: as §1
# [4] = 0.6 mg/kg oral, single administration, 5 h
# [5] = 0.6 mg/kg, s.c. or oral, mouse liver
# [6] = 0.6 mg/kg parenteral (s.c.), 5 h
smiles,measurement,setting,value
C#CCN(C)CCCOc1ccc(Cl)cc1Cl [clorgyline],MAO A activity remaining in the gut,"[1]; 0.6 mg/kg s.c., 5 h after dose, mouse gut",50% and > 50%
same,MAO A activity remaining in the liver,"[1]; 0.6 mg/kg s.c., 5 h after dose, mouse liver",> 50%
same,inhibition of MAO A activity in the striatum,"[1]; 0.6 mg/kg s.c., 5 h after dose, mouse striatum",90% and > 90%
same,MAO A inhibition in the gut,"[1]; 0.6 mg/kg s.c., mouse gut",approximately 50%
same,MAO A inhibition in the liver,"[1]; 0.6 mg/kg s.c., mouse liver",approximately 50%
same,MAO A activity in the gut,"[1]; 0.8 mg/kg s.c., 5 h after dose, mouse gut",31%
same,MAO A activity in the liver,"[1]; 0.8 mg/kg s.c., 5 h after dose, mouse liver",about 50%
same,"MAO activity in the gut, % of control","[1]; 1 mg/kg s.c., 5 h after dose, mouse gut",27 % of control
same,"MAO activity in the liver, % of control","[1]; 1 mg/kg s.c., 5 h after dose, mouse liver",51 % of control
same,MAO A inhibition in the striatum,"[1]; 1 mg/kg s.c., 5 h after dose, mouse striatum",> 90%
same,"intestine MAO A, % of control activity","[2]; 0.6 mg/kg oral, multiple administration (five, every 24 h), 5 h after last",~15 % of control
same,"intestine MAO A, % of control activity",[2]; [4],Approximately 20 % of control
same,striatal MAO A inhibition,[2]; [4],15%
same,MAO A inhibition in the liver,[2]; 0.6 mg/kg oral,≤ 25%
same,"striatal MAO A residual activity, % of control","[2]; 0.6 mg/kg per os, multiple treatments (five, every 24 h), 5 h after last",about 50 % of control
same,"striatal MAO A activity, % of the control value","[2]; 0.6 mg/kg s.c., five consecutive treatments every 24 h, 5 h after last",2 % of control
same,inhibition of intestinal MAO A,"[2]; 0.6 mg/kg s.c., injected once, 5 h",50%
same,striatal MAO A inhibition,"[2]; 0.6 mg/kg s.c., single administration, 5 h",approximately 90%
same,MAO A inhibition in the liver,[2]; 0.6 mg/kg subcutaneous,≤ 25%
same,"change in extent of MAO inhibition in the liver, single versus multiple treatments",[2]; [5],no significant changes
same,"MAO activity in the striatum, % of control values","[3]; 0.6 mg/kg oral gavage, 5 h",40 % of control
same,extent of inhibition of intestinal MAO A activity,"[3]; 0.6 mg/kg oral, 5 h",89%
same,extent of inhibition of intestinal MAO A activity,[3]; [6],55%
same,"MAO activity in the striatum, % of control values",[3]; [6],11 % of control
same,MAO A activity maintained in the gut,"[3]; 0.6 mg/kg parenteral injection, mouse gut",50%
same,"difference in extent of inhibition of MAO A activity in the liver, oral compared with subcutaneous","[3]; 0.6 mg/kg, 5 h, mouse liver",No significant difference
same,MAO A activity present in the liver after clorgyline exposure,[3]; [5],more than 50%
